Experimental data as given in patent publication US10398661B2, “Methods for classifying a cancer as susceptible to TMEPAI-directed therapies and treating such cancers” (THE BOARD OF REGENTS OF THE UNIVERSITY OF TEXAS SYSTEM, priority 2013, dated 2019).

Legend:
TMEPAI [1] = experiment: TMEPAI mRNA (QPCR) and protein expression in MDA-MB-231 cells with TGF-β; assay type: cell-based, human
Description: (§1) FIGS. 1A-B: Relative expression of TMEPAI mRNA and protein in normal and cancer cells. FIG. 1A. Effect of TGF-β on TMEPAI mRNA expression by QPCR in normal human mammary epithelial (HMEC) and MDA-MB-231 breast cancer cells, which is inhibited by TGF-β receptor I kinase inhibitor SB431542 (SB). FIG. 1B. Relative expression of TMEPAI protein in HMEC and MDA-MB-231 cells without or with TGF-β stimulation.
(§2) TMEPAI Expression in Normal Mammary Epithelial Cells Vs Breast Cancer Cells. […] The inventors tested the expression of TMEPAI in various breast cancer lines by immunoblotting. […] Moreover, TMEPAI is also expressed by aggressive HER2-positive breast cancer cells that either coexpress estrogen receptor (BT-474) or not (SK-BR-3) (FIG. 2).

[2] = tested on: normal mammary epithelial cells MCF-10A; experiment: Growth of normal mammary epithelial MCF-10A cells with celastrol; assay type: cell-based; details: 1 μM
Description: FIGS. 10A-D: Celastrol is novel inhibitor of TMEPAI expression and cancer cell growth by enhancing growth suppressive TGF-β signaling. FIG. 10A. […] FIG. 10B. Celastrol had no effect on the growth of normal mammary epithelial cells MCF-10A. FIG. 10C. Celastrol inhibited non-Smad signaling (left panel) and enhanced Smad signaling (right panel) by inhibiting TMEPAI expression. FIG. 10D. Celastrol enhanced Smad signaling as measured by 12XCAGA-Luciferase reporter assay.
Terpinoid Derivative Celastrol Blocked TMEPAI Expression and Reversed TMEPAI Mediated Effects. The inventors identified tripterine (celastrol), a triterpinoid, having the ability to block TGF-β induced TMEPAI expression after screening several terpinoid derivatives with reactive α,β-unsaturated ketones in their structure. […] Only a mild decrease in the proliferation of normal MCF-10A cells was observed even at a 10-fold higher dose of celastrol (not shown). […] Equally, celastrol inhibited non-Smad signaling (FIG. 10C, left panel). The enhancement of Smad signaling is also confirmed by increased 12XCAGA-luciferase reporter activity (FIG. 10D).

MDA-MB-231 tumors = experiment: Subcutaneous MDA-MB-231 tumors in athymic mice treated with celastrol; assay type: in vivo; details: 2 mg/kg, 3 times a week for 4 weeks
Experimental: (§3) FIG. 11A. athymic mice bearing subcutaneous MDA-MB-231 tumors that were treated for 3 times a week for 4 consecutive weeks with 2 mg/kg celastrol or vehicle alone. FIG. 11B. Tumor weights following celastrol treatment, P<0.001. […] FIG. 11C. […] Toxicity of celastrol administered was monitored by measuring total body weight.
(§4) Pharmacological Inhibition of TMEPAI Expression Reduces Tumor Growth In Vivo. […] Compared to vehicle-treatment, celastrol treatment led to a ˜6-fold reduction in tumor burden (FIG. 11B). […] Thus, these preclinical studies confirm that TMEPAI expressing breast cancers thrive by suppressing tumor suppressive TGF-β signaling and are therefore susceptible to pharmacological inhibition of TMEPAI expression by celastrol.

[3] = Total body weight of tumor-bearing mice treated with celastrol (toxicity); assay type: in vivo; details: 2 mg/kg
Experimental: as §3, §4

[4] = Body weights of xenograft-bearing nude mice treated with CLST-NP or CLST (toxicity); assay type: in vivo; details: doses administered: 0.2 mg/kg CLST-NP, 2 mg/Kg CLST
Experimental: (FIG. 12A) Representative pictures of tumors excised from nude mice that harbored xenografts of human breast cancer cells (MDA-MB-231). (Veh-NP) 2 mg/kg drug-free liposomes, 0.2 mg/kg celastrol containing liposomes (CLST-NP) or 2 mg/Kg celastrol alone (CLST) were administered by intraperitoneal injection every alternate day for first week and every 2 day interval for following week for a total of two weeks period. (FIG. 12B) Tumor weights were shown *p<0.01 versus Vehicle control group. (FIG. 12C) Tumor volumes measured before sacrificing the animals. * p<0.01 versus Vehicle control group. (FIG. 12D) Similarities in body weights of animals treated with vehicle or drugs indicate non-toxicity of CLST-NP and CLST at the doses administered.
Similarities in body weights of animals treated with vehicle or drugs indicate non-toxicity of CLST-NP and CLST at the doses administered.

[5] = cited from earlier work
TMEPAI [6] = experiment: TMEPAI RNA and protein expression in normal human mammary epithelial cells (HMEC) with TGF-β; assay type: cell-based; details: in response to TGF-β
Description: as §1, §2

[7] = MDA-MB-231 cells, within 6 h of treatment

NC(=O)c1ccc(-c2nc(-c3ccc4c(c3)OCO4)c(-c3ccccn3)[nH]2)cc1 [SB431542]
effect of TGF-β on TMEPAI mRNA expression by QPCR in presence of inhibitor (TMEPAI [1]; HMEC and MDA-MB-231 cells): inhibited

CC1=C(O)C(=O)C=C2C1=CC=C1[C@@]2(C)CC[C@@]2(C)[C@@H]3C[C@](C)(C(=O)O)CC[C@]3(C)CC[C@]12C [celastrol]
growth of normal MCF-10A cells [2]: no effect
reduction in tumor burden compared to vehicle-treatment (tumor weights) (MDA-MB-231 tumors): ~6 fold
luminescence signal in the tumors (MDA-MB-231 tumors; MDA-MB-231 cells expressing GFP-luciferase): 500-2500 RLU
total body weights of mice versus vehicle [3]: remained the same
toxic effects at the dose given to mice [3]: no toxic effects
toxicity judged from body weights similar to vehicle [4]: non-toxicity
aqueous solubility [5]: low

TGF-β
induction of TMEPAI mRNA (TMEPAI [1]; [7]): > 40 fold
induction of TMEPAI proteins (TMEPAI [1]; [7]): ~9 fold
induction of TMEPAI RNA and proteins (TMEPAI [6]): poorly induced
